What all share (assay): MIC by serial dilution in nutrient agar
Holding throughout (format): cell-based

The subject of one experiment is Enterobacter cloacae P99.
The next experiment has as its system Serratia marcescens US32. The following applies: Serratia marcescens US 32, nutrient agar (Oxoid), 10^4 colony forming units, overnight at 37° C.
In experiment [1] the test system is Pseudomonas aeruginosa NCTC 10662. Particulars: NCTC10662, nutrient agar (Oxoid), 10^4 colony forming units, overnight at 37° C.
The test system of experiment [2] is Serratia marcescens HCN 3956. The following applies: HCN3956, nutrient agar (Oxoid), 10^4 colony forming units, overnight at 37° C.
For experiment [3], the system named is Staphylococcus aureus Oxford. The following applies: nutrient agar (Oxoid), 10^4 colony forming units, overnight at 37° C.

≈ marks a conversion by molar mass, not a printed value.

As a reminder, the MIC is the smallest concentration in the dilution series that meets the test's criterion for growth inhibition. High values mean a need for much substance, low ones inhibition by little substance. For `CCN1CCN(C(=O)NC(C(=O)NC2(NC=O)C(=O)N3C(C(=O)[O-])=C(C[n+]4ccccc4)CSC32)c2ccc(OC(C)=O)c(OC(C)=O)c2)C(=O)C1=O` [Compound A, 7β-[D-2-(3,4-diacetoxyphenyl)-2-[(4-ethyl-2,3-dioxopiperazin-1-yl)carbonylamino]acetamido]-7α-formamido-3-(pyridinium)methyl-ceph-3-em-4-carboxylate], the MIC with Enterobacter cloacae P99 turned out to be 8 µg/mL (≈ 10.6 µM); against Serratia marcescens US32 it was 0.5 µg/mL (≈ 0.665 µM); in experiment [1], 2 µg/mL (≈ 2.66 µM); in experiment [2], 16 µg/mL (≈ 21.3 µM); in experiment [3] it was 16 µg/mL (≈ 21.3 µM).
For the molecule `CCN1CCN(C(=O)NC(C(=O)NC2(NC=O)C(=O)N3C(C(=O)[O-])=C(C[n+]4ccccc4)CSC32)c2ccc(O)c(O)c2)C(=O)C1=O` [Example 1, 7β-[D-2-(3,4-Dihydroxyphenyl)-2-[(4-ethyl-2,3-dioxopiperazin-1-yl)carbonylamino]acetamido]-7α-formamido-3-(pyridinium)methyl-ceph-3-em-4-carboxylate], the minimum inhibitory concentration (MIC) with Enterobacter cloacae P99 stood at 2 µg/mL (≈ 3 µM); against Serratia marcescens US32, 0.12 µg/mL (≈ 0.18 µM); in experiment [1], 0.5 µg/mL (≈ 0.749 µM); in experiment [2], 2 µg/mL (≈ 3 µM); in experiment [3], 8 µg/mL (≈ 12 µM).

The values are drawn from patent US5028427A, “"Cephalosporin" compounds” (Beecham Group p.l.c., priority 1987, dated 1991).
